{"source": "paper PMC8105722", "about": "(The Journal of Experimental Medicine, 2021)", "target": "Rv0812 (Mycobacterium tuberculosis, UniProt Q79FW0)", "sequence (Q79FW0 whole entry)": "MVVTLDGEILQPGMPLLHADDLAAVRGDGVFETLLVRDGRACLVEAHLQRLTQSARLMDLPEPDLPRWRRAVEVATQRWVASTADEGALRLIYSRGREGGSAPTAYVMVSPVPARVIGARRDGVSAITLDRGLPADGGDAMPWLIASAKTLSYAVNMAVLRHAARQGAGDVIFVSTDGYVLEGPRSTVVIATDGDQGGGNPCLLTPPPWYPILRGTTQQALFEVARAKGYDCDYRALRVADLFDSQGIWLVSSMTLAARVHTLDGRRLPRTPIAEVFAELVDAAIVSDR", "data": [{"smiles": "Cc1ncc(COP(=O)(O)O)c(C=O)c1O", "note": "[PLP]", "values": [{"measurement": "X-ray crystal structure (cocrystal with 0.2 mM PLP)", "value": "PLP was fit into the corresponding electron density"}]}]}
